Results taken from PubChem BioAssay AID248 (DTP/NCI, 2004).
Several values for one entry are separate records, joined by “and”; a condition that tells them apart may be missing. Equal entries are not always repeated. Inconclusive results and toxic doses are left out.

Test system: L1210 leukemia ip in BDF1 mice, survival T/C
Experiment: NCI In Vivo Anticancer Drug Screen. Data for tumor model L1210 Leukemia (intraperitoneal) in B6D2F1 (BDF1) mice
Conditions: endpoint: mean survival time, higher = longer survival
How it was run: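 Tumor was transplanted into mice, which were then dosed with test compound or vehicle alone. Survival was recorded for each group, and the treated figure was expressed relative to the control figure.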

[1] = dose: 50.0 mg/kg/injection, schedule: Q04DX002 (ip), vehicle: Klucel (hydroxypropylcellulose) (HPC)
[2] = dose: 100.0 mg/kg/injection, schedule: Q04DX002 (ip), vehicle: Klucel (hydroxypropylcellulose) (HPC)
[3] = dose: 100.0 mg/kg/injection, schedule: Q01DX009 (ip), vehicle: Klucel (hydroxypropylcellulose) (HPC)
[4] = dose: 200.0 mg/kg/injection, schedule: Q01DX009 (ip), vehicle: Klucel (hydroxypropylcellulose) (HPC)
[5] = dose: 400.0 mg/kg/injection, schedule: Q01DX009 (ip), vehicle: Klucel (hydroxypropylcellulose) (HPC)
[6] = dose: 100.0 mg/kg/injection, schedule: Q04DX003 (ip), vehicle: Klucel (hydroxypropylcellulose) (HPC)
[7] = dose: 200.0 mg/kg/injection, schedule: Q04DX003 (ip), vehicle: Klucel (hydroxypropylcellulose) (HPC)
[8] = dose: 400.0 mg/kg/injection, schedule: Q04DX003 (ip), vehicle: Klucel (hydroxypropylcellulose) (HPC)
[9] = dose: 100.0 mg/kg/injection, schedule: Q01DX001 (ip), vehicle: saline
[10] = dose: 200.0 mg/kg/injection, schedule: Q01DX001 (ip), vehicle: saline
[11] = dose: 400.0 mg/kg/injection, schedule: Q01DX001 (ip), vehicle: saline
[12] = dose: 100.0 mg/kg/injection, schedule: Q01DX001 (ip), vehicle: Klucel (hydroxypropylcellulose) (HPC)
[13] = dose: 200.0 mg/kg/injection, schedule: Q01DX001 (ip), vehicle: Klucel (hydroxypropylcellulose) (HPC)
[14] = dose: 400.0 mg/kg/injection, schedule: Q01DX001 (ip), vehicle: Klucel (hydroxypropylcellulose) (HPC)

NC(=S)N/N=C/c1c(Cl)n(-c2ccccc2)c2ccccc12
T/C [1]: 87 % of control | T/C [2]: 87 % of control | T/C (dose: 200.0 mg/kg/injection, schedule: Q04DX002 (ip), vehicle: Klucel (hydroxypropylcellulose) (HPC)): 93 % of control

Cc1cccc(Cl)c1NC(=O)Nc1ccc(CCO)cc1
T/C [3]: 103 % of control | T/C [4]: 97 % of control | T/C [5]: 94 % of control

Cc1ccc(/C=N/N)s1
T/C (dose: 100.0 mg/kg/injection, schedule: Q04DX003 (ip), vehicle: other): 92 % of control | T/C (dose: 200.0 mg/kg/injection, schedule: Q04DX003 (ip), vehicle: other): 99 % of control

CCCN1CC2=C1C(=O)c1ccccc1C2=O
T/C (dose: 100.0 mg/kg/injection, schedule: Q01DX001 (ip), vehicle: other): 97 % of control | T/C (dose: 200.0 mg/kg/injection, schedule: Q01DX001 (ip), vehicle: other): 93 % of control | T/C (dose: 400.0 mg/kg/injection, schedule: Q01DX001 (ip), vehicle: other): 87 % of control

O=c1cnc2ccc3ccccc3c2[nH]1
T/C (dose: 25.0 mg/kg/injection, schedule: Q04DX002 (ip), vehicle: Klucel (hydroxypropylcellulose) (HPC)): 97 % of control | T/C [1]: 93 % of control | T/C [2]: 90 % of control

COC(=O)c1cc(OC)nc(OC)c1
T/C [6]: 102 % of control | T/C [7]: 110 % of control | T/C [8]: 96 % of control

CC(=O)[O][Hg][c]1c(N)c(C)cc(C)c1F
T/C (dose: 2.5 mg/kg/injection, schedule: Q01DX009 (ip), vehicle: saline): 91 % of control | T/C (dose: 5.0 mg/kg/injection, schedule: Q01DX009 (ip), vehicle: saline): 95 % of control | T/C (dose: 6.25 mg/kg/injection, schedule: Q04DX003 (ip), vehicle: saline): 101 % of control | T/C (dose: 10.0 mg/kg/injection, schedule: Q01DX009 (ip), vehicle: saline): 98 % of control | T/C (dose: 12.5 mg/kg/injection, schedule: Q04DX003 (ip), vehicle: saline): 91 % of control | T/C (dose: 25.0 mg/kg/injection, schedule: Q04DX003 (ip), vehicle: saline): 94 % of control and 100 % of control | T/C (dose: 100.0 mg/kg/injection, schedule: Q04DX003 (ip), vehicle: saline): 95 % of control

C[C@]12C(=O)OC(=O)[C@H]1[C@H]1CC[C@@H]2C1
T/C [9]: 110 % of control | T/C (dose: 100.0 mg/kg/injection, schedule: Q01DX009 (ip), vehicle: acetone): 102 % of control | T/C (dose: 100.0 mg/kg/injection, schedule: Q04DX003 (ip), vehicle: acetone): 104 % of control | T/C [10]: 106 % of control | T/C (dose: 200.0 mg/kg/injection, schedule: Q01DX009 (ip), vehicle: acetone): 89 % of control | T/C (dose: 200.0 mg/kg/injection, schedule: Q04DX003 (ip), vehicle: acetone): 101 % of control | T/C [11]: 111 % of control | T/C (dose: 400.0 mg/kg/injection, schedule: Q04DX003 (ip), vehicle: acetone): 104 % of control

COC1(OC)C2(Cl)C3C(=O)C4C5C(=O)C3C1(Cl)C5(Cl)C42Cl (centres undefined)
T/C [9]: 105 % of control | T/C [10]: 94 % of control | T/C [11]: 89 % of control

Nc1ccc(S(=O)(=O)NS(=O)(=O)c2ccccc2)cc1
T/C [9]: 95 % of control | T/C [10]: 93 % of control | T/C [11]: 101 % of control

CCN=C(N)Nc1ccc(NC(=O)c2ccc(C(=O)Nc3ccc(NC(N)=NCC)cc3)cc2)cc1
T/C (dose: 0.12 mg/kg/injection, schedule: Q01DX Z (ip), vehicle: carboxymethylcellulose (CMC)): 101 % of control | T/C (dose: 0.25 mg/kg/injection, schedule: Q01DX Z (ip), vehicle: carboxymethylcellulose (CMC)): 105 % of control | T/C (dose: 1.0 mg/kg/injection, schedule: Q01DX Z (ip), vehicle: carboxymethylcellulose (CMC)): 154 % of control | T/C (dose: 2.0 mg/kg/injection, schedule: Q01DX Z (ip), vehicle: carboxymethylcellulose (CMC)): 227 % of control | T/C (dose: 3.0 mg/kg/injection, schedule: Q01DX Z (ip), vehicle: carboxymethylcellulose (CMC)): 261 % of control | T/C (dose: 4.0 mg/kg/injection, schedule: Q01DX Z (ip), vehicle: carboxymethylcellulose (CMC)): 264 % of control | T/C (dose: 6.0 mg/kg/injection, schedule: Q01DX Z (ip), vehicle: carboxymethylcellulose (CMC)): 198 % of control | T/C (dose: 8.0 mg/kg/injection, schedule: Q01DX Z (ip), vehicle: carboxymethylcellulose (CMC)): 155 % of control | T/C (dose: 11.0 mg/kg/injection, schedule: Q01DX001 (ip), vehicle: carboxymethylcellulose (CMC)): 122 % of control | T/C (dose: 11.0 mg/kg/injection, schedule: Q01DX001 (ip), vehicle: other): 122 % of control | T/C (dose: 16.0 mg/kg/injection, schedule: Q01DX Z (ip), vehicle: carboxymethylcellulose (CMC)): 121 % of control | T/C (dose: 21.0 mg/kg/injection, schedule: Q01DX001 (ip), vehicle: carboxymethylcellulose (CMC)): 151 % of control | T/C (dose: 21.0 mg/kg/injection, schedule: Q01DX001 (ip), vehicle: other): 155 % of control | T/C (dose: 32.0 mg/kg/injection, schedule: Q01DX001 (ip), vehicle: carboxymethylcellulose (CMC)): 163 % of control | T/C (dose: 32.0 mg/kg/injection, schedule: Q01DX001 (ip), vehicle: other): 164 % of control | T/C (dose: 32.0 mg/kg/injection, schedule: Q01DX Z (ip), vehicle: carboxymethylcellulose (CMC)): 91 % of control | T/C (dose: 48.0 mg/kg/injection, schedule: Q01DX001 (ip), vehicle: carboxymethylcellulose (CMC)): 209 % of control | T/C (dose: 48.0 mg/kg/injection, schedule: Q01DX001 (ip), vehicle: other): 204 % of control | T/C (dose: 50.0 mg/kg/injection, schedule: Q01DX Z (oral), vehicle: carboxymethylcellulose (CMC)): 118 % of control | T/C (dose: 100.0 mg/kg/injection, schedule: Q01DX Z (oral), vehicle: carboxymethylcellulose (CMC)): 104 % of control | T/C (dose: 200.0 mg/kg/injection, schedule: Q01DX Z (oral), vehicle: carboxymethylcellulose (CMC)): 96 % of control | T/C (dose: 400.0 mg/kg/injection, schedule: Q01DX Z (oral), vehicle: carboxymethylcellulose (CMC)): 118 % of control

CCCCN=C(NCCCC)Oc1ccccc1
T/C (dose: 26.6 mg/kg/injection, schedule: Q01DX Z (ip), vehicle: methylcellulose (MC)): 104 % of control | T/C (dose: 40.0 mg/kg/injection, schedule: Q01DX Z (ip), vehicle: methylcellulose (MC)): 102 % of control | T/C (dose: 60.0 mg/kg/injection, schedule: Q01DX Z (ip), vehicle: methylcellulose (MC)): 102 % of control

NNC(=O)CCN1CC1
T/C [6]: 109 % of control | T/C [7]: 107 % of control | T/C [8]: 115 % of control

O=S(=O)(O)CS(=O)(=O)O.[Ag]
T/C (dose: 5.0 mg/kg/injection, schedule: Q01DX001 (ip), vehicle: saline): 101 % of control | T/C (dose: 10.0 mg/kg/injection, schedule: Q01DX001 (ip), vehicle: saline): 95 % of control | T/C (dose: 20.0 mg/kg/injection, schedule: Q01DX001 (ip), vehicle: saline): 97 % of control | T/C (dose: 40.0 mg/kg/injection, schedule: Q01DX001 (ip), vehicle: saline): 97 % of control

CN1C(=O)C2C3C=CC(C3)C2C1=O (centres undefined)
T/C [12]: 97 % of control | T/C [3]: 101 % of control | T/C [13]: 101 % of control | T/C [4]: 100 % of control | T/C [14]: 106 % of control | T/C [5]: 96 % of control

COc1cc(OC)c(Oc2cc(OC)c(OC)c(OC)c2)c(OC)c1
T/C (dose: 100.0 mg/kg/injection, schedule: Q04DX003 (ip), vehicle: saline with Tween-80): 97 % of control | T/C (dose: 200.0 mg/kg/injection, schedule: Q04DX003 (ip), vehicle: saline with Tween-80): 103 % of control | T/C (dose: 400.0 mg/kg/injection, schedule: Q04DX003 (ip), vehicle: saline with Tween-80): 101 % of control

C/C=C(\CC)C(=O)O.[Pb]
T/C (dose: 50.0 mg/kg/injection, schedule: Q04DX002 (ip), vehicle: saline with Tween-80): 97 % of control | T/C (dose: 100.0 mg/kg/injection, schedule: Q04DX002 (ip), vehicle: saline with Tween-80): 96 % of control and 119 % of control | T/C (dose: 200.0 mg/kg/injection, schedule: Q04DX002 (ip), vehicle: saline with Tween-80): 100 % of control | T/C (dose: 400.0 mg/kg/injection, schedule: Q04DX002 (ip), vehicle: saline with Tween-80): 92 % of control

CC(C)(C)OC(=O)C1(C(=O)OC(C)(C)C)C2CCCCC21 (centres undefined)
T/C [12]: 95 % of control | T/C [6]: 101 % of control | T/C [13]: 90 % of control | T/C [7]: 101 % of control | T/C [14]: 87 % of control | T/C [8]: 96 % of control
